Measured values from patent US11807625B2, “Capsid inhibitors for the prevention of HIV” (Gilead Sciences, Inc., priority 2019, dated 2023).
“And” between values parts separate entries of the source, which are not always exact repeats. Identical values can stand only once.

Assay: PK of compound of Formula (Ia) after single subcutaneous dose of solution formulations in beagle dogs
Assay type: in vivo
Settings: individual dogs
Procedure: Formulations containing the compound of Formula (Ia), or a pharmaceutically acceptable salt thereof, were prepared as solutions and optionally administered subcutaneously or intramuscularly to rats, rabbits, and/or dogs.
(§1) A solution of about 400 mg/mL of the compound of Formula (Ia) having 17.00 w/w % water, 36.40 w/w % PEG 300, 35.20 w/w % of a sodium salt of a compound of Formula (Ia), 5.00 w/w % ethanol, and 6.40 w/w % poloxamer 188 was prepared. The solution was administered subcutaneously to male beagle dogs at a dose level of about 12 mg/kg and male Wistar Han rats at a dose level of about 50 mg/kg. The pharmacokinetic profiles were determined, and the results for dogs are summarized in Table and Table, while the results for rats are summarized in Table and Table below.
as §1, with “500” for “400”, “14.06” for “17.00”, “30.12” for “36.40”
A solution of about 300 mg/mL of the compound of Formula (Ia) having 23.33 w/w % water, 48.99 w/w % PEG 300, 26.47 w/w % of a sodium salt of a compound of Formula (Ia), and 1.21 w/w % poloxamer 188 was prepared. The solution was administered subcutaneously to male beagle dogs at a dose level of about 6 mg/kg and male Wistar Han rats at a dose level of about 50 mg/kg. The pharmacokinetic profiles were determined, and the results for dogs are summarized in Table and Table, while the results for rats are summarized in Table and Table below.
as §1, with “18.80” for “17.00”, “40.25” for “36.40”, “34.38” for “35.20”, “1.57” for “6.40”
as §1, with “500” for “400”, “16.29” for “17.00”, “34.88” for “36.40”, “41.92” for “35.20”, “1.91” for “6.40”
as §1, with “20.90” for “17.00”, “44.72” for “36.40”, “and 34.38” for “35.20”, “(Ia)” for “(Ia), 5.00 w/w % ethanol, and 6.40 w/w % poloxamer 188”
A solution of about 400 mg/mL of the compound of Formula (Ia) having 19.90 w/w % water, 42.59 w/w % PEG 300, 34.38 w/w % of a sodium salt of a compound of Formula (Ia), and 3.13 w/w % poloxamer 188 was prepared. The solution was administered subcutaneously to male beagle dogs at a dose level of about 12 mg/kg and male Wistar Han rats at a dose level of about 50 mg/kg. […]

Plasma concentration (0 h, SC 6 mg/kg, solution V, 300 mg/mL): BLQ
Plasma concentration (0 h, SC 12 mg/kg, solution T, 400 mg/mL): BLQ
Plasma concentration (0 h, SC 12 mg/kg, solution U, 500 mg/mL): BLQ
Plasma concentration (1.00 h, SC 6 mg/kg, solution V, 300 mg/mL): BLQ
Plasma concentration (1.00 h, SC 12 mg/kg, solution T, 400 mg/mL, 12 mg/kg): 10.5 nM and 4.75 nM and 2.96 nM
Plasma concentration (1.00 h, SC 12 mg/kg, solution U, 500 mg/mL, 12 mg/kg): 4.85 nM and 2.05 nM and 9.86 nM
Plasma concentration (3.00 h, SC 6 mg/kg, solution V, 300 mg/mL, 6 mg/kg): BLQ and 3.25 nM
Plasma concentration (3.00 h, SC 12 mg/kg, solution T, 400 mg/mL, 12 mg/kg): 26.1 nM and 18.6 nM and 9.64 nM
Plasma concentration (3.00 h, SC 12 mg/kg, solution U, 500 mg/mL, 12 mg/kg): 22.9 nM and 7.00 nM and 36.1 nM
Plasma concentration (8.00 h, SC 6 mg/kg, solution V, 300 mg/mL, 6 mg/kg): 11.6 nM and 11.4 nM
Plasma concentration (8.00 h, SC 12 mg/kg, solution T, 400 mg/mL, 12 mg/kg): 84.5 nM and 50.3 nM
Plasma concentration (8.00 h, SC 12 mg/kg, solution U, 500 mg/mL, 12 mg/kg): 68.7 nM and 26.4 nM and 88.4 nM
Plasma concentration (24.0 h, SC 6 mg/kg, solution V, 300 mg/mL, 6 mg/kg): 25.7 nM and 22.6 nM
Plasma concentration (24.0 h, SC 12 mg/kg, solution T, 400 mg/mL, 12 mg/kg): 254 nM and 187 nM
Plasma concentration (24.0 h, SC 12 mg/kg, solution U, 500 mg/mL, 12 mg/kg): 101 nM and 92.7 nM and 207 nM
Plasma concentration (48.0 h, SC 6 mg/kg, solution V, 300 mg/mL, 6 mg/kg): 27.9 nM and 29.4 nM
Plasma concentration (48.0 h, SC 12 mg/kg, solution T, 400 mg/mL, 12 mg/kg): 166 nM and 380 nM and 179 nM
Plasma concentration (48.0 h, SC 12 mg/kg, solution U, 500 mg/mL, 12 mg/kg): 94.1 nM and 94.8 nM
Plasma concentration (72.0 h, SC 6 mg/kg, solution V, 300 mg/mL, 6 mg/kg): 29.6 nM and 31.5 nM
Plasma concentration (72.0 h, SC 12 mg/kg, solution T, 400 mg/mL, 12 mg/kg): 105 nM and 452 nM and 112 nM
Plasma concentration (72.0 h, SC 12 mg/kg, solution U, 500 mg/mL, 12 mg/kg): 62.3 nM and 64.0 nM
Plasma concentration (96.0 h, SC 6 mg/kg, solution V, 300 mg/mL, 6 mg/kg): 28.8 nM and 29.6 nM
Plasma concentration (96.0 h, SC 12 mg/kg, solution T, 400 mg/mL, 12 mg/kg): 89.8 nM and 523 nM and 83.8 nM
Plasma concentration (96.0 h, SC 12 mg/kg, solution U, 500 mg/mL, 12 mg/kg): 45.7 nM and 62.6 nM
Plasma concentration (168 h, SC 6 mg/kg, solution V, 300 mg/mL, 6 mg/kg): 34.5 nM and 41.4 nM
Plasma concentration (168 h, SC 12 mg/kg, solution T, 400 mg/mL, 12 mg/kg): 105 nM and 408 nM and 151 nM
Plasma concentration (168 h, SC 12 mg/kg, solution U, 500 mg/mL, 12 mg/kg): 55.9 nM and 49.6 nM and 187 nM
Plasma concentration (336 h, SC 12 mg/kg, solution T, 400 mg/mL, 12 mg/kg): 353 nM and 250 nM
Plasma concentration (336 h, SC 12 mg/kg, solution U, 500 mg/mL, 12 mg/kg): 155 nM and 187 nM
Plasma concentration (504 h, SC 12 mg/kg, solution T, 400 mg/mL, 12 mg/kg): 229 nM and 199 nM
Plasma concentration (504 h, SC 12 mg/kg, solution U, 500 mg/mL, 12 mg/kg): 166 nM and 129 nM
Plasma concentration (672 h, SC 12 mg/kg, solution T, 400 mg/mL, 12 mg/kg): 106 nM and 90.6 nM
Plasma concentration (672 h, SC 12 mg/kg, solution U, 500 mg/mL, 12 mg/kg): 106 nM and 101 nM and 38.7 nM
Plasma concentration (840 h, SC 12 mg/kg, solution T, 400 mg/mL, 12 mg/kg): 139 nM and 69.8 nM and 63.7 nM
Plasma concentration (840 h, SC 12 mg/kg, solution U, 500 mg/mL, 12 mg/kg): 107 nM and 69.7 nM and 41.2 nM
Plasma concentration (1008 h, SC 12 mg/kg, solution T, 400 mg/mL, 12 mg/kg): 71.1 nM and 74.2 nM
Plasma concentration (1008 h, SC 12 mg/kg, solution U, 500 mg/mL, 12 mg/kg): 83.5 nM and 61.1 nM and 30.4 nM
Plasma concentration (1344 h, SC 12 mg/kg, solution T, 400 mg/mL, 12 mg/kg): 35.6 nM and 30.6 nM
Plasma concentration (1344 h, SC 12 mg/kg, solution U, 500 mg/mL, 12 mg/kg): 38.5 nM and 22.5 nM
Plasma concentration (1680 h, SC 12 mg/kg, solution T, 400 mg/mL, 12 mg/kg): 34.6 nM and 17.3 nM
Plasma concentration (1680 h, SC 12 mg/kg, solution U, 500 mg/mL, 12 mg/kg): 25.7 nM and 27.7 nM and 10.5 nM
Plasma concentration (2016 h, SC 12 mg/kg, solution T, 400 mg/mL, 12 mg/kg): 7.9 nM (2×) and 19.6 nM
Plasma concentration (2016 h, SC 12 mg/kg, solution U, 500 mg/mL, 12 mg/kg): 10.7 nM and 13.8 nM and 6.40 nM
Plasma concentration (2352 h, SC 12 mg/kg, solution T, 400 mg/mL, 12 mg/kg): 7.6 nM and 5.7 nM
Plasma concentration (2352 h, SC 12 mg/kg, solution U, 500 mg/mL, 12 mg/kg): 8.8 nM and 10.2 nM and 3.45 nM
Plasma concentration (3696 h, SC 6 mg/kg, solution V, 300 mg/mL): BLQ
Plasma concentration (4032 h, SC 6 mg/kg, solution V, 300 mg/mL): BLQ
Compound: CC(C)(C#Cc1ccc(-c2ccc(Cl)c3c(NS(C)(=O)=O)nn(CC(F)(F)F)c23)c([C@H](Cc2cc(F)cc(F)c2)NC(=O)Cn2nc(C(F)(F)F)c3c2C(F)(F)[C@@H]2C[C@H]32)n1)S(C)(=O)=O [compound of Formula (Ia)]
